This note sets out measurements from patent US20230099756A1, “METHODS OF USING ANTI-CD79B IMMUNOCONJUGATES TO TREAT DIFFUSE LARGE B-CELL LYMPHOMA” (Genentech, Inc., priority 2021, published 2023).

Where a SMILES comes first, the peptide text is derived from it. [ ]: non-standard residue; d: D form. The star is where a group is joined. Dolaproine = CO[C@@H]([C@@H]1CCCN1)[C@@H](C)C(=O)O; Dil = CC[C@H](C)[C@H](NC)[C@@H](CC(=O)O)OC; X1 = C[C@@H](N*)[C@@H](O)c1ccccc1; NMeV = CN[C@H](C(=O)O)C(C)C

What all share (assay type): in vitro ADME
The target of one series is CYP2D6 (Homo sapiens, UniProt P10635). The experiment in a line: In vitro metabolism of unconjugated MMAE. Particulars: in vitro data. The source says:
(§1) Based on a validated physiological-based PK model simulation, strong CYP3A4 inhibitors may increase the exposure (e.g., area under the concentration-time curve) of unconjugated MMAE by […] while acMMAE PK is not affected. Concomitant medications that are strong CYP3A4 inhibitors are considered cautionary as they may potentially lead to adverse reactions, which require close monitoring. […] Concomitant medications that are P-gp inhibitors are considered cautionary as they may potentially lead to adverse reactions, which require close monitoring.

Another series addresses CYP3A4 (Homo sapiens, UniProt P08684). The experiment in a line: In vitro metabolism of unconjugated MMAE. Particulars: in vitro data.
From the text: as §1

In the next series the target is P-glycoprotein (P-gp) (Homo sapiens, UniProt P08183). The experiment in a line: P-glycoprotein substrate and inhibitor status of MMAE.
P-glycoprotein (P-gp), sequence (P08183 whole entry): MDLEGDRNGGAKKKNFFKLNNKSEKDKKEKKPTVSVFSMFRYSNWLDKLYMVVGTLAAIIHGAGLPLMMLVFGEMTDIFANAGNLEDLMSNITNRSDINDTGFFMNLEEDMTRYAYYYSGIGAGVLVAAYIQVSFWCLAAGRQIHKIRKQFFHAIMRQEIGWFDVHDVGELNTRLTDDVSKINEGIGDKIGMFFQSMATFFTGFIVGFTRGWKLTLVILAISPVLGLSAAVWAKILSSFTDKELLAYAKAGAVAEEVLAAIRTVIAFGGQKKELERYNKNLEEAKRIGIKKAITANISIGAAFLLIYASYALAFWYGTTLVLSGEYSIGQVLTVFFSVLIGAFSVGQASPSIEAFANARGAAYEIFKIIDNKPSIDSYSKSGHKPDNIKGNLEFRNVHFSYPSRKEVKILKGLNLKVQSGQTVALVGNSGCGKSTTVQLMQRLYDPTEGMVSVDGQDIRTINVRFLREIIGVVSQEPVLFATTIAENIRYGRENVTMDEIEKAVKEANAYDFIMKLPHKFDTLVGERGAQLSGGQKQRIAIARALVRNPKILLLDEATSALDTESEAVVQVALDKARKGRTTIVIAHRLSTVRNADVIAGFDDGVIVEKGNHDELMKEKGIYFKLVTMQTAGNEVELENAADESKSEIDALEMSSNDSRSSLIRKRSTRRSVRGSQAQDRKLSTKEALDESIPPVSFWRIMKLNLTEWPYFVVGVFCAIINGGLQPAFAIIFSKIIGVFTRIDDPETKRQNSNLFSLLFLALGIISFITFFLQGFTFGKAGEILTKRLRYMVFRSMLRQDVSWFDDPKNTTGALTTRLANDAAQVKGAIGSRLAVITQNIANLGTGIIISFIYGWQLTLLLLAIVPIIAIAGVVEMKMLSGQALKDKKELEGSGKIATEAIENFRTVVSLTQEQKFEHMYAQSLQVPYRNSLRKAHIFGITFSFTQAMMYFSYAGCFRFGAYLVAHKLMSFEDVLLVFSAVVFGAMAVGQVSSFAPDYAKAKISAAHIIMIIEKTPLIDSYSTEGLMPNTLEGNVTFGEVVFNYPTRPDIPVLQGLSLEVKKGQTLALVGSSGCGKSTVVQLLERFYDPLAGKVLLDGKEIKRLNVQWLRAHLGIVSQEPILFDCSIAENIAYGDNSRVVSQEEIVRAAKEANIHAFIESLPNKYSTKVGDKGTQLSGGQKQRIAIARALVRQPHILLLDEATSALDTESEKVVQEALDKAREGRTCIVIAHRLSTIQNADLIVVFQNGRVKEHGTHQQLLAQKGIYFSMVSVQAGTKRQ
From the text: as §1

CYP2D6, sequence (P10635 whole entry): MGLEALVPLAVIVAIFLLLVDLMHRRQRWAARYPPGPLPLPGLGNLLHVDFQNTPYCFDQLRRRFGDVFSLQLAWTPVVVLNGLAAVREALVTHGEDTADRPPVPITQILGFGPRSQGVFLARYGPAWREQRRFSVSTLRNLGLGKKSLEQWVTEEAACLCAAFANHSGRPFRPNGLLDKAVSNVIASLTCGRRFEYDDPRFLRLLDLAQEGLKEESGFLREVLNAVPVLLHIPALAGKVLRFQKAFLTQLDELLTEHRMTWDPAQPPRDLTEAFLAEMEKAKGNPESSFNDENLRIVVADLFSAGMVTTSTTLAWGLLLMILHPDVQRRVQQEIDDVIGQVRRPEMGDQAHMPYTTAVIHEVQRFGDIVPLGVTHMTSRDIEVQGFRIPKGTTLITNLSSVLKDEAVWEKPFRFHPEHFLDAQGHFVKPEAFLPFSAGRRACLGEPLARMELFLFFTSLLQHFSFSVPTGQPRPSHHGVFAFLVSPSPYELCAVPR
CYP3A4, sequence (P08684 whole entry): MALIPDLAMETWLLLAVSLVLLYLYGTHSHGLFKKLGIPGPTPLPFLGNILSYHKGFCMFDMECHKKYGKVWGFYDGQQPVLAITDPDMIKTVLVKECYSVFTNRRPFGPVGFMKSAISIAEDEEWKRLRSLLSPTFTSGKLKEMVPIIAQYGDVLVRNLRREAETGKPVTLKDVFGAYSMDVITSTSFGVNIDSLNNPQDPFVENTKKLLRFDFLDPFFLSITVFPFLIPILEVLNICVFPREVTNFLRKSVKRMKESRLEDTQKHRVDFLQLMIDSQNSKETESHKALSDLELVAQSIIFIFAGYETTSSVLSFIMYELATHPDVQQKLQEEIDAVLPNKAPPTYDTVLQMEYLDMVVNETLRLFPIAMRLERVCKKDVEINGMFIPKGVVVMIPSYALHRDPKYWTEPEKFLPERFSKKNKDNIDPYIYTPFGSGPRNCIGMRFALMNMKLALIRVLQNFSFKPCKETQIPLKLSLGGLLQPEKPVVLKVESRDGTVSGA

With `CC[C@H](C)[C@@H]([C@@H](CC(=O)N1CCC[C@H]1[C@H](OC)[C@@H](C)C(=O)N[C@H](C)[C@@H](O)c1ccccc1)OC)N(C)C(=O)[C@@H](NC(=O)[C@@H](NC)C(C)C)C(C)C` [MMAE] (H-[NMeV]V[Dil][Dolaproine]-X1), the “metabolism by CYP2D6” value on CYP2D6 is “to a lesser extent, by CYP2D6”. Moreover, on CYP3A4, the “metabolism by CYP3A4” value is recorded as “mainly metabolized by CYP3A4”. Moreover, on P-glycoprotein (P-gp), the P-gp inhibitor status entry is given as “not a P-gp inhibitor” and the P-gp substrate status result is listed as “P-glycoprotein (P-gp) substrate”.
